*1 amine or outer side, *2 acyl side, *3 side chain or, on linkers, in order; H or OH if unused. Where a SMILES comes first, the peptide text is derived from it. Bridges are numbered along the chain shown (N, C = ends). Roman numbers before positions name the chains, in order. [ ]: non-standard residue; d: D form. CO(CH2CH2O)13CH2CH2CO = O=C(CCOCCOCCOCCOCCOCCOCCOCCOCCOCCOCCOCCOCCOCCC(=O)[*:2])[*:1]; 3Pal = N[C@@H](Cc1cccnc1)C(=O)O
Legend:
[1] = target: T1, Recombinant Human TrkC Fc Chimera Protein (Homo sapiens, UniProt Q16288); assay: Surface plasmon resonance (SPR), Biacore T200, single cycle kinetics; type: binding; conditions: FIG. 4
T1 construct: purchased R&D Systems
T1 sequence (Q16288 with tags, fused parts or gaps limits assumed): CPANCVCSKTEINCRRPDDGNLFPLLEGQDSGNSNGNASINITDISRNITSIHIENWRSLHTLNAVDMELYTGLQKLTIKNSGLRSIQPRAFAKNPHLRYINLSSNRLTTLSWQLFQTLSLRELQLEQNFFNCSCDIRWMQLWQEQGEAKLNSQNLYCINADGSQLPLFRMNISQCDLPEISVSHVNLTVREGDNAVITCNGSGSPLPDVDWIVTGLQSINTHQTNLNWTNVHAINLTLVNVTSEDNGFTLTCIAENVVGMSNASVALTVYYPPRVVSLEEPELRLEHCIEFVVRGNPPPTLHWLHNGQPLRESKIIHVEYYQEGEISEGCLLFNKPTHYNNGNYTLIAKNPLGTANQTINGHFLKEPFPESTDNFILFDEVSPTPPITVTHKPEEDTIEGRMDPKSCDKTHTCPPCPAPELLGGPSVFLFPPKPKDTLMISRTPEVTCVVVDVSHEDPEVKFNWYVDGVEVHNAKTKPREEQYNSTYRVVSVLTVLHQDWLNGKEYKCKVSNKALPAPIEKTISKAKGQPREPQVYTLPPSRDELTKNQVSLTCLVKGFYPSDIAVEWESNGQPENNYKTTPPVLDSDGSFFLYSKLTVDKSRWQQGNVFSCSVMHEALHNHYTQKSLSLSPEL
Method: (§1) A CM3 sensor chip (Cytiva) was inserted into a Biacore T200 (Cytiva). Three priming runs were performed using running buffer: HBS-EP+ (Cytiva). The system was then equilibrated at a flow rate of 30 μL/min. After mixing in 50 μL each of a 60 mM EDC solution (Cytiva) and 650 mM NHS solution (Cytiva), the reaction was performed at a flow rate of 10 μL/min for 420 seconds. Then, 135 μL of a 30 ng/μL anti-human IgG (Fc) antibody (Cytiva) solution was prepared by dilution with a 10 mM acetic acid solution (pH 5.0), and the anti-human IgG (Fc) antibody was immobilized on the CM3 sensor chip by reacting it at a flow rate of 10 μL/min for 360 seconds. After immobilization, capping was performed by reacting it with a 1.0M ethanolamine solution (Cytiva) at a flow rate of 10 μL/min for 420 seconds. Each 200 nM Recombinant Human TrkA Fc Chimera Protein, Recombinant Human TrkB Fc Chimera Protein, Recombinant Human TrkC Fc Chimera Protein (R&D Systems) solution was reacted with the immobilized antibody at a flow rate of 10 μL/min for 60 seconds. A liquid prepared by dissolving each peptide at 10 mM in DMSO solution was diluted with running buffer to prepare a peptide-dissolved solution at a final concentration of 10 μM. Subsequently, 50 nM, 25 nM, 12.5 nM, 5 nM, and 2.5 nM peptide solutions were prepared. Using the samples described above, the kinetics of peptide against TrkA, TrkB, and TrkC were obtained by SPR measurements. After reacting a peptide with TrkA, TrkB, and TrkC, regeneration was performed using a reaction with a 3M MgCl solution at 10 μL/min for 180 seconds.
(§2) The kinetic evaluation model was Single Cycle Kinetics, and curve fitting was performed using Biacore T200 Evaluation Software Version 3.0 (Cytiva). The binding of peptides to TrkA, TrkB, and TrkC was evaluated by performing least-squares curve fitting on the obtained sensorgrams and calculating their Kd values (dissociation constants).

[2] = target: T2, Recombinant Human TrkB Fc Chimera Protein (Homo sapiens, UniProt Q16620); assay: as above; type: binding; conditions: for Kd: calculated by employing the lower theoretical limit of 0.00001 (1/s) for koff, read-out: Kd (dissociation constant) of binding to TrkB
T2 construct: purchased R&D Systems
Method: as §1, §2

[3] = target: T3, Recombinant Human TrkA Fc Chimera Protein (Homo sapiens, UniProt P04629); assay: as above; type: binding; conditions: FIG. 4
T3 construct: purchased R&D Systems
T3 sequence (P04629 with tags, fused parts or gaps limits assumed): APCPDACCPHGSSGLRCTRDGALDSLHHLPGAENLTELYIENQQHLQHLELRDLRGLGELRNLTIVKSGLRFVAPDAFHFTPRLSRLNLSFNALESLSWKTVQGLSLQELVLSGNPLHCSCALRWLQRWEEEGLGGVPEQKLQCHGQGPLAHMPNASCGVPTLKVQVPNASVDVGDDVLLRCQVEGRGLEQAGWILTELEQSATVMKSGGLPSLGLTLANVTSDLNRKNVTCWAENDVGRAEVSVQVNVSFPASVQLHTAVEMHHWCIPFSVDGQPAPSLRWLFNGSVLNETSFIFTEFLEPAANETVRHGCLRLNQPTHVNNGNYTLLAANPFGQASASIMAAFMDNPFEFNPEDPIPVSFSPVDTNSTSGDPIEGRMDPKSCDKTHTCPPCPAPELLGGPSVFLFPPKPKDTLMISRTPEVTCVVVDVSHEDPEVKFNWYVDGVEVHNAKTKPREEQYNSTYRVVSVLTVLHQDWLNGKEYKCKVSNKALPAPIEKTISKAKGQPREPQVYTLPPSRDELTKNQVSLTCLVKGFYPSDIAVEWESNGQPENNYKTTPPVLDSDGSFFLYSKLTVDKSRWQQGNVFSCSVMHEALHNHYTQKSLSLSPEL
Method: as §1, §2

TrkB = TrkB (Homo sapiens, UniProt Q16620); assay: PathHunter eXpress TrkB Functional Assay (phosphorylation of TrkB); type: cell-based; conditions: maximum signal induced by BDNF = 100%; stimulation for 3 hours
TrkB, sequence (Q16620 32-822): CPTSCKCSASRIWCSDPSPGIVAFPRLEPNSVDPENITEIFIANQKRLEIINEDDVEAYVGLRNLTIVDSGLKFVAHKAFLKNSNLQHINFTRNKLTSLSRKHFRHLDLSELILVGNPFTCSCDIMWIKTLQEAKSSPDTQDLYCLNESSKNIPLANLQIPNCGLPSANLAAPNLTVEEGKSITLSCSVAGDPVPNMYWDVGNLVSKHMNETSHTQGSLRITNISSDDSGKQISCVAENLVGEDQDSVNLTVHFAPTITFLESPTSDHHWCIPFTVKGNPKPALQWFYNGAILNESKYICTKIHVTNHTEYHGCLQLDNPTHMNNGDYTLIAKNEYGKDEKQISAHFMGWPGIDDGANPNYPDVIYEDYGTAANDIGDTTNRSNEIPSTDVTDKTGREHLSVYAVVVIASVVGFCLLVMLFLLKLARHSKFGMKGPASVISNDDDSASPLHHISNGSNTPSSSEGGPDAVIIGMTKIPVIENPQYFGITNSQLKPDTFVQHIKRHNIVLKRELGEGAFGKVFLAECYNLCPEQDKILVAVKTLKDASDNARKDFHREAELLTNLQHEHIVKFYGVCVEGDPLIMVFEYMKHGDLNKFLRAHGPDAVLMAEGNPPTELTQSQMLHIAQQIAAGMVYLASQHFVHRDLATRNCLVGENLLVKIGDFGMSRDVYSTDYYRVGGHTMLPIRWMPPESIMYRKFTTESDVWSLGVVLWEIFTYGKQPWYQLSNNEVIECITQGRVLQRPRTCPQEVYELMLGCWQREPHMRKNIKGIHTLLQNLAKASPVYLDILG
How it was run: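 PathHunter TrkB cells, cultured 48 h, were stimulated 3 h with peptide or BDNF, then detection reagent added for 60 min at room temperature; luminescence read. Activity (%) scaled from unstimulated (0%) to maximal BDNF signal (100%); peptides tested over 0.006104-100 nM, 0.032-100 nM or 0.01-10 nM ranges.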

[4] = target: T4, TrkB (CellSensor TrkB-NFAT-bla CHO-K1 Cell) (Homo sapiens, UniProt Q16620); assay: pERK1/2 AlphaLISA assay (phosphorylation of ERK) for TrkB agonist activity; type: cell-based; conditions: class = peptide concentration giving 50% or more activity; BDNF maximum signal = 100%, no stimulation = 0%; 15 minutes of stimulation
T4 construct: host or cells: CHO-K1 (CellSensor TrkB-NFAT-bla CHO-K1)
T4 sequence (Q16620 32-822): as above
How it was run: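 TrkB-NFAT-bla CHO-K1 cells were starved 4 h in 0.1% BSA medium and then stimulated 15 min with peptide or BDNF; p-ERK1/2 (Thr202/Tyr204) in the lysate was read by AlphaLISA SureFire. Activity % was scaled to the BDNF maximum (100%) and no stimulation (0%); A = ≥50% at 1 nM, B = ≥50% at 10 nM; curves were 8 points, 4-fold dilutions from 100 nM.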

SMILES	binding to TrkC [1]	koff (dissociation rate constant) of binding to TrkB [2]	Kd [2] [nM]	binding to TrkA [3]	Emax (TrkB) [%]	pERK (aLISA) Assay Results [4]
CC(C)[C@@H]1NC(=O)[C@H](Cc2cccnc2)NC(=O)[C@H](CCC(=O)O)NC(=O)[C@H](CO)NC(=O)[C@H](Cc2ccc(O)cc2)NC(=O)[C@H]([C@@H](C)O)NC(=O)[C@@H]2CCCN2C(=O)[C@H](Cc2c[nH]c3ccccc23)NC(=O)[C@H](Cc2cccnc2)NC(=O)[C@H](Cc2ccc(O)cc2)NC(=O)[C@@H]2CCCN2C(=O)[C@H](CCC(=O)O)NC(=O)[C@H](Cc2ccccc2)NC(=O)CSC[C@@H](C(=O)NCC(=O)N[C@@H](CCCCNC(=O)CCOCCOCCOCCOCCOCCOCCOCCOCCOCCOCCOCCOCCOCCC(=O)NCCCC[C@H](NC(=O)CNC(=O)[C@@H]2CSCC(=O)N[C@@H](Cc3ccccc3)C(=O)N[C@@H](CCC(=O)O)C(=O)N3CCC[C@H]3C(=O)N[C@@H](Cc3ccc(O)cc3)C(=O)N[C@@H](Cc3cccnc3)C(=O)N[C@@H](Cc3c[nH]c4ccccc34)C(=O)N3CCC[C@H]3C(=O)N[C@@H]([C@@H](C)O)C(=O)N[C@@H](Cc3ccc(O)cc3)C(=O)N[C@@H](CO)C(=O)N[C@@H](CCC(=O)O)C(=O)N[C@@H](Cc3cccnc3)C(=O)N[C@@H](C(C)C)C(=O)N[C@@H](CCC(=O)O)C(=O)N2)C(N)=O)C(N)=O)NC(=O)[C@H](CCC(=O)O)NC1=O [compound 56] (I: {CH2CO}-FEPY[3Pal]WPTYSE[3Pal]VECGK-NH2 / II: {CH2CO}-FEPY[3Pal]WPTYSE[3Pal]VECGK-NH2; linker I:17-II:17 via CO(CH2CH2O)13CH2CH2CO; thioether I:N-I:15, II:N-II:15)	no binding	exceeded the measurement limit	≤ 0.1	no binding	93	A (The peptide with 50% or more activity when 1 nM of the peptide was added was evaluated as A)
CC(C)[C@@H]1NC(=O)[C@H](Cc2cccnc2)NC(=O)[C@H](CCC(=O)O)NC(=O)[C@H](CO)NC(=O)[C@H](Cc2ccc(O)cc2)NC(=O)[C@H]([C@@H](C)O)NC(=O)[C@@H]2CCCN2C(=O)[C@H](Cc2c[nH]c3ccccc23)NC(=O)[C@H](Cc2cccnc2)NC(=O)[C@H](Cc2ccc(O)cc2)NC(=O)[C@@H]2CCCN2C(=O)[C@H](CO)NC(=O)[C@H](Cc2ccccc2)NC(=O)CSC[C@@H](C(=O)NCC(=O)N[C@@H](CCCCNC(=O)CCOCCOCCOCCOCCOCCOCCOCCOCCOCCOCCOCCOCCOCCC(=O)NCCCC[C@H](NC(=O)CNC(=O)[C@@H]2CSCC(=O)N[C@@H](Cc3ccccc3)C(=O)N[C@@H](CO)C(=O)N3CCC[C@H]3C(=O)N[C@@H](Cc3ccc(O)cc3)C(=O)N[C@@H](Cc3cccnc3)C(=O)N[C@@H](Cc3c[nH]c4ccccc34)C(=O)N3CCC[C@H]3C(=O)N[C@@H]([C@@H](C)O)C(=O)N[C@@H](Cc3ccc(O)cc3)C(=O)N[C@@H](CO)C(=O)N[C@@H](CCC(=O)O)C(=O)N[C@@H](Cc3cccnc3)C(=O)N[C@@H](C(C)C)C(=O)N[C@@H](CCC(=O)O)C(=O)N2)C(N)=O)C(N)=O)NC(=O)[C@H](CCC(=O)O)NC1=O [compound 48] (I: {CH2CO}-FSPY[3Pal]WPTYSE[3Pal]VECGK-NH2 / II: {CH2CO}-FSPY[3Pal]WPTYSE[3Pal]VECGK-NH2; linker I:17-II:17 via CO(CH2CH2O)13CH2CH2CO; thioether I:N-I:15, II:N-II:15)	no binding	exceeded the measurement limit	≤ 0.1	no binding	102	A (The peptide with 50% or more activity when 1 nM of the peptide was added was evaluated as A)
